Reference: PMC8591608, “DNDI-6148: A Novel Benzoxaborole Preclinical Candidate for the Treatment of Visceral Leishmaniasis” (Journal of Medicinal Chemistry, 2021)
pEC50: −log10 of the molar value. Read-outs that look alike come from different tables or passages of the source.

Columns and labels:
L. infantum = assay: Intramacrophage L. infantum assay; type: cell-based; conditions: Leishmania infantum
In short: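 Ex vivo splenic amastigotes from infected hamsters used to infect primary macrophages (3 × 10^4 cells/4.5 × 10^5 parasites per well) in RPMI-1640 with 5% inactivated FCS. After 5 days' exposure, Giemsa-stained burdens counted microscopically versus untreated infected (100%) and uninfected (0%) controls; EC50 from 8-point 2-fold dilutions.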

L. donovani [1] = assay: Intramacrophage L. donovani assay; type: cell-based; conditions: Leishmania donovani
Method: L. infantum (MHOM/MA/67/ITMAP263) and L. donovani (MHOM/ET/67/L82) were maintained in the golden (Syrian) hamster (Mesocricetus auratus). Ex vivo amastigotes were collected from the spleen of an infected donor hamster using two centrifugation purification steps: 230g for 10 min, keeping the supernatant layer, and 4100g for 30 min, keeping the pellet. The spleen parasite burden was assessed using the Stauber technique.[25] For in vitro assays, the inoculum was prepared in RPMI-1640 medium, supplemented with 200 mM L-glutamine, 16.5 mM NaHCO3, and 5% inactivated fetal calf serum. For the in vivo model, an infection inoculum containing 2 × 10^7 amastigotes/100 μL was prepared in phosphate-buffered saline (PBS).
The assay was performed in sterile 96-well microtiter plates, each well containing 10 μL of the compound dilution and 190 μL of the PMM/amastigote inoculum (3 × 10^4 cells/4.5 × 10^5 parasites per well). Parasite multiplication was compared to untreated infected controls (100% growth) and uninfected controls (0% growth). After five-day incubation, total parasite burdens were microscopically assessed after staining the cells with a 10% Giemsa solution. The results were expressed as a percentage reduction in parasite burden compared to untreated control wells. EC50 values were determined using an extended dose range (2-fold compound dilutions, 8-point concentration curve). Miltefosine was used as the reference drug.[26] For selected compounds, this assay format was also run using the L. donovani inoculum.

PMM cytotoxicity assay = type: cell-based; conditions: mouse, primary peritoneal mouse macrophages (PMM)
In short: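 PMM (harvested 2 days after 2% potato starch peritoneal stimulation) or MRC5SV2 human lung fibroblasts at 3 × 10^4 cells/mL were exposed to compound for three days at 37 °C, 5% CO2. Viability was read by resazurin fluorescence (λex 550, λem 590 nm) after 4 h, as % growth reduction vs untreated controls.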

[2] = Liver microsome stability, human; type: in vitro ADME; conditions: for microsomal CLint at 1 μM: human liver microsomes, pH 7.4, Table 5, read-out: HLM Clint
In short: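 Compounds at 1 μM incubated at 37 °C with liver microsomes (Balb/c mouse, golden Syrian hamster, Beagle dog, human) plus NADPH regenerating system in 100 mM phosphate buffer pH 7.4, 0.4 or 0.8 mg/mL protein. Samples taken from 0 up to 60, 90 or 120 min, quenched in cold methanol and analysed by LC-MS/MS.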

L. donovani [3] = assay: L. donovani mouse model of VL; type: in vivo
Method: Female BALB/c mice were infected with 2 × 10^7L. donovani amastigotes/0.2 mL i.v. harvested from the spleen of an infected donor RAG1B6 mouse (LSHTM). After 7 days, the mice were treated with miltefosine or DNDI-6148 for 5 consecutive days. Five days after the final dose, mice were humanely killed, liver and spleens were dissected and weighed, and impression smears were made for the calculation of parasite burden (Stauber equation).[25]

[4] = Hamster oral pharmacokinetic study; type: in vivo, golden Syrian hamsters; conditions: female, golden Syrian, plasma, single p.o. dose 50 mg/kg, read-out: AUC0–24 after single p.o. dose of 50 mg/kg
Method: […] The K2-EDTA anticoagulant was added to blood samples collected from 0.25 to 36 h, which were processed to plasma and stabilized with phosphoric acid (1% final) before analysis by LC-MS/MS. PK parameters were calculated using WinNonlin software (version 6.3).

[5] = 14-day exploratory toxicology study in rats; conditions: 14-day study
[6] = Table 5, geometric mean of at least two independent tests, read-out: intramacrophage L. infantum amastigote EC50
[7] = Table 2, geometric mean of at least three independent assays
[8] = Table 5, geometric mean of at least two independent tests
[9] = Table 6, geometric mean of at least two independent tests

Row | Structure (SMILES) | pEC50 (L. infantum; Table 2, geometric mean of at least three independent assays, read-out: intramacrophage L. infantum EC50) | pEC50 (L. infantum; [6]) | pEC50 (L. donovani [1]; [7]) | EC50 at 3 days (PMM cytotoxicity assay; [7]) [nM] | CC50 at 3 days (PMM cytotoxicity assay; [8]) [nM] | microsome Clint ([2]; Table 10) [μL/min/mg protein] | microsomal CLint at 1 μM [2] [µL/min/mg] | reduction in liver parasite burden following 5 days of p.o. dosing BID, L. donovani (L. donovani [3]; 25 mg/kg BID) [%] | reduction in liver parasite burden following 5 days of p.o. dosing BID, L. donovani (L. donovani [3]; 50 mg/kg BID) [%] | AUC(0-t) [4] [ng·h/mL] | no adverse effect limit ([5]; male and female Sprague-Dawley rats) [mg/kg/day] | pEC50 (L. donovani [1]; [9]) | CC50 at 72 h (PMM cytotoxicity assay; [8]) [nM] | CC50 at 3 days (PMM cytotoxicity assay; [9]) [nM] | toxicity finding ([5]; rats, daily dosing of 25 mg/kg)
1 | Cc1c(C(=O)Nc2ccc3c(c2)B(O)OC3)nnn1-c1ccccn1 [Compound 23, N-(1-Hydroxy-1,3-dihydrobenzo[c][1,2]oxaborol-6-yl)-5-methyl-1-(pyridin-2-yl)-1H-1,2,3-triazole-4-carboxamide] | 5.74 | 5.74 | 5.85 | > 64000 | > 64000 | <11.9 | < 11.9 | 97.1 | 99.7 | 120000 | 50 |  |  |  | 
2 | Cc1c(-c2ccccn2)coc1C(=O)Nc1ccc2c(c1)B(O)OC2 [Compound 28, N-(1-Hydroxy-1,3-dihydrobenzo[c][1,2]oxaborol-6-yl)-3-methyl-4-(pyridin-2-yl)furan-2-carboxamide] |  | 6.30 |  |  |  |  | < 11.9 | 97.5 | 99.5 | 21000 |  | 6.40 | 49000 | 54000 | significant multiorgan toxicity
